Measured values reported in patent US4443607A, “1(2H)-Isoquinolone compounds and acid addition salts thereof” (priority 1981, dated 1984).
Values joined by “and” are separate entries in the source; they are usually repeats but may differ in a detail not shown here. Equal values may be shown once. Where a name gives a salt, the structure may show the parent alone.

How the values were obtained:
[1] = test system: gastric secretion; test: Gastric secretion inhibitory activity in pylorus-ligated rats; type: in vivo, Wistar male rats; conditions: for Percent Inhibition (gastric juice) / Percent Inhibition (output secretion) / Amount of Gastric Juice / Amount of Output Secretion: 25 mg/kg into duodenum, 5 h; for Amount of Gastric Juice / Amount of Output Secretion: 10 rats, mean ± SD
Description: Five hours after the administration, the rats were sacrificed and gastric juice was collected. The volume and the pH value of the gastric juice and the degree of acid secretion were then determined.

[2] = test system: stress ulcer; test: Stress Ulcer (1), water-dipping restriction stress, non-fasted rats tied with steel wire; type: in vivo, Wistar male rats; conditions: 50 mg/kg oral
Description: The test compound was administered orally to Wistar male rats (body weight, 200 to 230 g) and 30 minutes thereafter the rats were tied up with a steel wire and dipped in water at 23° C. in a tank to the level of the xiphisternum of rats. After leaving the rats in water for 7 hours, the rats were sacrificed and the stomach was extracted. 10 ml of a 1% formalin solution was injected into the stomach cavity and the stomach was dipped in a 1% formalin solution for 15 minutes to semi-harden the stomach.

[3] = test system: blood pressure; test: Anti-hypertensive activity in anesthetized cats; type: in vivo; conditions: 5 to 10 mg/kg via femoral vein; urethane anesthesia
Description: Cats weighing 3 to 5 kg were anesthetized by intraperitoneal administration of urethane at a dose of 1.5 g/kg. The test compound was administered through a catheter into a femoral vein and the blood pressure was determined by a pressure transducer through a catheter inserted into the femoral artery.

[4] = test system: stomach mucous membrane blood flow; test: Blood flow increasing activity on stomach mucous membrane (aminopyrin clearance method); type: in vivo, Wistar male rats; conditions: 3 mg/kg intravenous
[5] = test system: aspirin-induced ulcer; test: Aspirin Ulcer in pylorus-ligated rats; type: in vivo, Wistar male rats; conditions: for Percent Inhibition / Ulcerous Index: aspirin 100 mg/kg oral; for Ulcerous Index: mean ± SE
Description: The pylorus of Wistar male rats (body weight, 230 to 250 g) which fasted for 24 hours was ligated and, immediately thereafter, the test compound was administered into the duodenum. 15 hours thereafter, acetylsalicylic acid (Aspirin) was administered orally at a dose of 100 mg/kg. Seven hours after administration of acetylsalicylic acid, the rats were sacrificed and the gastric juice was collected. the stomach was then worked up in the same manner as above to determine the ulcerous index.

[6] = test system: blood flow in stomach mucous membrane; test: Recovery activity on blood flow decrease in stomach mucous membrane by blood drawing; type: in vivo, Wistar male rats; conditions: 10 mg/kg intravenous
Description: Wistar male rats (body weight, 250 to 280 g) fasted for 24 hours and the blood flow in stomach mucous membrane was determined by the aminopyrin clearance method as described above under urethane anesthesia. After determination of blood flow, a blood sample was drawn in an amount equivalent to 3% of the body weight and, 5 minutes thereafter, the blood sample was reinstated. The blood flow was then determined at an interval of 15 minutes. The test compound was administered intravenously 15 minutes after the blood drawing.

[7] = test system: stress ulcer; test: Stress Ulcer (2), fasted rats in stress cage dipped in water; type: in vivo, Wistar male rats; conditions: for Percent Inhibition / Ulcerous Index: 25 mg/kg oral, fasted 18 h; for Ulcerous Index: 7 h water immersion at 23° C., 7 rats, mean ± SD
Description: The test compound was administered orally to Wistar male rats (body weight, 180 to 200 g) which fasted for 18 hours before testing. 30 minutes thereafter, stress was loaded to the rats in a stress cage by dipping the cage into water at 23° C. to the level of the xiphisternum of rats. After leaving the rats in water for 7 hours, the rats were sacrificed and the stomach was extracted. The stomach was then worked up in the same manner as above to determine the ulcerous index.

Structure (SMILES)	Percent Inhibition (gastric juice) [1] [%]	Percent Inhibition (output secretion) [1] [%]	Amount of Gastric Juice [1] [mL]	Amount of Output Secretion [1] [μ Eq.]	inhibition of ulcer generation (in words) [2]	duration of blood pressure lowering activity [3]	Percent Inhibition [7] [%]	Ulcerous Index [7] [mm]	also measured
CN/C(=N/CCSCc1nc[nH]c1C)NC#N [Cimetidine]	32.7	52.6	2.26 ± 0.85	136.6 ± 74.19					
C=CCN(CC=C)C(C)Cn1cc(-c2ccccc2)c2ccccc2c1=O (stereo not shown) [Compound A, 2-(2-N,N-diallylaminopropyl)-4-phenyl-1(2H)-isoquinolone maleate]					inhibit the ulcer generation caused by water-dipping restriction stress	more than 2 hours			Percent Inhibition ([2]; 7 h water immersion at 23° C.): 62.2% and 75.5%; Ulcerous Index ([2]; 7 h water immersion at 23° C., 6 rats, mean ± SD): 10.5 ± 6.22 mm and 6.8 ± 3.19 mm; time of maximum percent increase in blood flow [4]: 30 min; stomach mucous membrane blood flow increasing activity (in words) ([4]; 15, 30 and 45 minutes after administration): significance increasing activity on the stomach mucous membrane blood flow; percent increase in blood flow (maximum) ([4]; 30 minutes): about 50%; Percent Inhibition ([5]; 10 mg/kg i.d.): 29.41%; Ulcerous Index ([5]; 10 mg/kg i.d.): 42.28 ± 2.56 mm; Percent Inhibition ([5]; 25 mg/kg i.d.): 42.98%; Ulcerous Index ([5]; 25 mg/kg i.d.): 34.15 ± 4.37 mm; Percent Inhibition ([5]; 50 mg/kg i.d.): 57.52%; Ulcerous Index ([5]; 50 mg/kg i.d.): 25.44 ± 3.41 mm; inhibition of aspirin-induced ulcer (in words) ([5]; 10, 25, 50 mg/kg i.d.): inhibits the aspirin-induced ulcer at dose levels of 10, 25, 50 mg/kg, with dependency upon dose
C=CCN(CC=C)CC(C)Cn1cc(-c2ccccc2)c2ccccc2c1=O (stereo not shown) [Compound B, 2-(3-N,N-diallylamino-2-methylpropyl)-4-phenyl-1(2H)-isoquinolone hydrochloride]					inhibit the ulcer generation caused by water-dipping restriction stress	more than 2 hours			
CC(N)Cn1cc(-c2ccccc2)c2ccccc2c1=O.O=C(O)/C=C\C(=O)O (stereo not shown) [Compound C, 2-(2-aminopropyl)-4-phenyl-1(2H)-isoquinolone maleate]	54.2	56.3	1.54 ± 0.58	126.0 ± 40.42			52.8	14.6 ± 8.70	gastric secretion inhibitory activity (in words) ([1]; compared with propantheline bromide and Cimetidine): substantially equivalent to that of propantheline bromide but higher than that of Cimetidine; recovery activity on blood flow decrease (in words) [6]: significant recovery activity on blood flow decrease in stomach mucous membrane by blood drawing; Blood Flow in Mucous Membrane, 15 min. ([6]; 15 min., 3 rats, mean ± SD): 88.4 ± 36.9%; Blood Flow in Mucous Membrane, 30 min. ([6]; 30 min., 3 rats, mean ± SD): 92.7 ± 23.5%; Blood Flow in Mucous Membrane, 45 min. ([6]; 45 min., 3 rats, mean ± SD): 98.2 ± 10.2%; Blood Flow in Mucous Membrane, 60 min. ([6]; 60 min., 3 rats, mean ± SD): 101.4 ± 8.8%; Blood Flow in Mucous Membrane, 0 ([6]; time 0 (baseline), 3 rats): 100%; stress ulcer inhibitory activity (in words) ([7]; compared with propantheline bromide): substantially equivalent to that of propantheline bromide
CC(C)[N+](C)(CCOC(=O)C1c2ccccc2Oc2ccccc21)C(C)C [Propantheline Bromide]	56.5	58.8	1.46 ± 0.63	118.8 ± 63.51			51.9	14.9 ± 10.67	
